Literature values as cited in US20220031715A1, “COMPOSITIONS AND METHODS FOR ENHANCING WOUND HEALING” (priority 2018, published 2022).

Legend:
[1] = test system: mammals
[2] = test system: NR1I2/PAR, NR1i2/PXR, ESR1, NFE2L2/HEBP1, NR1 L3/CAR, and TSHR; conditions: at least six receptors

SMILES: O=P(Oc1ccccc1)(Oc1ccccc1)Oc1ccccc1 [TPP, triphenyl phosphate]
- toxicity [1]: very low toxicity
- activation of hormone receptors [2]: activates
